# Reference: the supplement of paper PMC10307832
# Key:
# Assay in all cases: relative viability (nuclei count vs DMSO), 5 days (fraction); higher = more cells survive
# [1] = tested on: NCI-H1395
# Method in brief: (§1)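 Dosing by pin tool came one day after lung cancer cell lines were seeded in 1536-well plates, using either one drug or a fixed anchor-drug dose plus five library-drug doses (not always all listed) in √10 steps. After 5 days, nuclei were counted on 4× images. Relative viability is treated-well nuclei count divided by vehicle-well nuclei count, and values are medians of duplicate plates.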
# [2] = tested on: NCI-H1355
# Method in brief: as §1
# [3] = tested on: 201T
# Method in brief: as §1
# [4] = tested on: SK-MES-1
# Method in brief: as §1
# [5] = tested on: HCC-366
# Method in brief: as §1
# [6] = tested on: NCI-H2085
# Method in brief: as §1
# [7] = tested on: SK-LU-1
# Method in brief: as §1
# [8] = tested on: NCI-H358
# Method in brief: as §1
# [9] = tested on: NCI-H647
# Method in brief: as §1
# [10] = tested on: NCI-H322M
# Method in brief: as §1
# [11] = tested on: HCC-78
# Method in brief: as §1
# [12] = tested on: PC-14
# Method in brief: as §1
# [13] = tested on: NCI-H1975
# Method in brief: as §1
# [14] = tested on: BEN
# Method in brief: as §1
# [15] = tested on: LU99A
# Method in brief: as §1
# [16] = tested on: UMC-11
# Method in brief: as §1
# [17] = tested on: NCI-H2087
# Method in brief: as §1
# [18] = tested on: NCI-H2228
# Method in brief: as §1
# [19] = tested on: NCI-H2126
# Method in brief: as §1
# [20] = tested on: LOU-NH91
# Method in brief: as §1
# [21] = tested on: HCC-44
# Method in brief: as §1
# [22] = tested on: NCI-H1734
# Method in brief: as §1
structure (smiles),measurement,setting,value
C=C1C(=O)O[C@@H](CCCCCCCC)[C@@H]1C(=O)O [C-75] + Nc1nc2[nH]cc(CCc3ccc(C(=O)N[C@@H](CCC(=O)O)C(=O)O)cc3)c2c(=O)[nH]1 [Pemetrexed] (partner 0.2 µM),relative viability,[1]; first compound 0.08 µM,0.881
same,relative viability,[1]; first compound 0.253 µM,0.807
same,relative viability,[1]; first compound 2.53 µM,0.758
same,relative viability,[1]; first compound 8 µM,0.914
same,relative viability,[2]; first compound 0.08 µM,1.01
same,relative viability,[2]; first compound 0.253 µM,1.04
same,relative viability,[2]; first compound 0.8 µM,1.05
same,relative viability,[2]; first compound 2.53 µM,1.02
same,relative viability,[2]; first compound 8 µM,0.974
same,relative viability,[3]; first compound 0.08 µM,0.337
same,relative viability,[3]; first compound 0.253 µM,0.323
same,relative viability,[3]; first compound 0.8 µM,0.296
same,relative viability,[3]; first compound 2.53 µM,0.311
same,relative viability,[3]; first compound 8 µM,0.308
same,relative viability,[4]; first compound 0.08 µM,0.97
same,relative viability,[4]; first compound 0.253 µM,0.911
same,relative viability,[4]; first compound 0.8 µM,0.839
same,relative viability,[4]; first compound 2.53 µM,0.766
same,relative viability,[4]; first compound 8 µM,0.919
same,relative viability,[5]; first compound 0.08 µM,0.156
same,relative viability,[5]; first compound 0.253 µM,0.183
same,relative viability,[5]; first compound 0.8 µM,0.149
same,relative viability,[5]; first compound 2.53 µM,0.22
same,relative viability,[5]; first compound 8 µM,0.188
same,relative viability,[6]; first compound 0.08 µM,0.875
same,relative viability,[6]; first compound 0.253 µM,0.738
same,relative viability,[6]; first compound 0.8 µM,0.857
same,relative viability,[6]; first compound 2.53 µM,0.788
same,relative viability,[6]; first compound 8 µM,0.902
same,relative viability,[7]; first compound 0.08 µM,0.984
same,relative viability,[7]; first compound 0.253 µM,0.87
same,relative viability,[7]; first compound 0.8 µM,0.845
same,relative viability,[7]; first compound 2.53 µM,0.866
same,relative viability,[7]; first compound 8 µM,0.746
same,relative viability,[8]; first compound 0.08 µM,0.169
same,relative viability,[8]; first compound 0.253 µM,0.185
same,relative viability,[8]; first compound 0.8 µM,0.168
same,relative viability,[8]; first compound 8 µM,0.189
same,relative viability,[9]; first compound 0.08 µM,0.181
same,relative viability,[9]; first compound 0.253 µM,0.186
same,relative viability,[9]; first compound 0.8 µM,0.167
same,relative viability,[9]; first compound 2.53 µM,0.171
same,relative viability,[9]; first compound 8 µM,0.128
same,relative viability,[10]; first compound 0.08 µM,0.633
same,relative viability,[10]; first compound 0.253 µM,0.6
same,relative viability,[10]; first compound 0.8 µM,0.575
same,relative viability,[10]; first compound 8 µM,0.625
same,relative viability,[11]; first compound 0.08 µM,0.829
same,relative viability,[11]; first compound 0.253 µM,0.902
same,relative viability,[11]; first compound 0.8 µM,0.839
same,relative viability,[11]; first compound 8 µM,0.893
same,relative viability,[12]; first compound 0.08 µM,0.141
same,relative viability,[12]; first compound 0.253 µM,0.146
same,relative viability,[12]; first compound 0.8 µM,0.137
same,relative viability,[12]; first compound 2.53 µM,0.141
same,relative viability,[12]; first compound 8 µM,0.131
same,relative viability,[13]; first compound 0.08 µM,0.281
same,relative viability,[13]; first compound 0.253 µM,0.287
same,relative viability,[13]; first compound 0.8 µM,0.262
same,relative viability,[13]; first compound 2.53 µM,0.264
same,relative viability,[13]; first compound 8 µM,0.292
same,relative viability,[14]; first compound 0.08 µM,0.753
same,relative viability,[14]; first compound 0.253 µM,0.816
same,relative viability,[14]; first compound 0.8 µM,0.688
same,relative viability,[14]; first compound 2.53 µM,0.842
same,relative viability,[14]; first compound 8 µM,0.766
same,relative viability,[15]; first compound 0.08 µM,0.191
same,relative viability,[15]; first compound 0.253 µM,0.212
same,relative viability,[15]; first compound 0.8 µM,0.195
same,relative viability,[15]; first compound 2.53 µM,0.19
same,relative viability,[15]; first compound 8 µM,0.21
same,relative viability,[16]; first compound 0.08 µM,0.77
same,relative viability,[16]; first compound 0.253 µM,0.883
same,relative viability,[16]; first compound 0.8 µM,0.725
same,relative viability,[16]; first compound 2.53 µM,0.625
same,relative viability,[16]; first compound 8 µM,0.576
same,relative viability,[17]; first compound 0.08 µM,0.695
same,relative viability,[17]; first compound 0.253 µM,0.686
same,relative viability,[17]; first compound 0.8 µM,0.616
same,relative viability,[17]; first compound 2.53 µM,0.647
same,relative viability,[17]; first compound 8 µM,0.574
same,relative viability,[18]; first compound 0.08 µM,0.33
same,relative viability,[18]; first compound 0.253 µM,0.332
same,relative viability,[18]; first compound 0.8 µM,0.29
same,relative viability,[18]; first compound 2.53 µM,0.333
same,relative viability,[18]; first compound 8 µM,0.318
same,relative viability,[19]; first compound 0.08 µM,0.727
same,relative viability,[19]; first compound 0.253 µM,0.681
same,relative viability,[19]; first compound 0.8 µM,0.725
same,relative viability,[19]; first compound 2.53 µM,0.622
same,relative viability,[19]; first compound 8 µM,0.673
same,relative viability,[20]; first compound 0.08 µM,0.308
same,relative viability,[20]; first compound 0.253 µM,0.362
same,relative viability,[20]; first compound 0.8 µM,0.386
same,relative viability,[20]; first compound 8 µM,0.378
same,relative viability,[21]; first compound 0.08 µM,0.58
same,relative viability,[21]; first compound 0.253 µM,0.698
same,relative viability,[21]; first compound 0.8 µM,0.683
same,relative viability,[21]; first compound 2.53 µM,0.572
same,relative viability,[21]; first compound 8 µM,0.634
same,relative viability,[22]; first compound 0.08 µM,0.382
same,relative viability,[22]; first compound 0.253 µM,0.396
same,relative viability,[22]; first compound 0.8 µM,0.41
same,relative viability,[22]; first compound 2.53 µM,0.359
same,relative viability,[22]; first compound 8 µM,0.361
